“Also recorded” adds a separate entry of the source. Like-named read-outs stand apart in the source and are kept apart here.
How the values were obtained:
[1] = type: in vivo, Male Sprague-Dawley rats; settings: for Body weight change over the five-day exposure interval: highest dose(s)
Description: In vivo rat experiments were performed at Integrated Laboratory Systems (ILS, Research Triangle Park, NC). ILS's Institutional Animal Care and Use Committee approved all experimental procedures. Research was conducted in compliance with the Animal Welfare Act, and other Federal statutes and regulations relating to animals and experiments involving animals and adheres to principles stated in the “Guide for Care and Use of Laboratory Animals” as prepared by the Committee on Care and Use of Laboratory Animals of the Institute of Laboratory Animal Resources, National Research Council in facilities that are fully accredited by the Association for Assessment and Accreditation of Laboratory Animal Care, International. Male Sprague-Dawley rats (CD IGS [CRL:CD (SD)]) were purchased from Charles River Laboratories (Stone Ridge, N.Y.). Rats weighing 215-245 g (8 weeks old) were used. Briefly, rats were housed two per cage with a rat tunnel enrichment device (Bio-Serve, Frenchtown, N.J.). Rats were fed a Purina Rodent Diet No. 5002 (Ralston Purina Co., St. Louis, Mo.), supplied ad libitum. Animals received reverse osmosis-treated tap water (City of Durham, N.C.) ad libitum, which was changed at least once weekly. Controls in the animal rooms were set to maintain temperatures between 20-In vivo rat experiments were performed at Integrated Laboratory Systems (ILS, Research Triangle Park, NC). ILS's Institutional Animal Care and Use Committee approved all experimental procedures. Research was conducted in compliance with the Animal Welfare Act, and other Federal statutes and regulations relating to animals and experiments involving animals and adheres to principles stated in the “Guide for Care and Use of Laboratory Animals” as prepared by the Committee on Care and Use of Laboratory Animals of the Institute of Laboratory Animal Resources, National Research Council in facilities that are fully accredited by the Association for Assessment and Accreditation of Laboratory Animal Care, International. Male Sprague-Dawley rats (CD IGS [CRL:CD (SD)]) were purchased from Charles River Laboratories (Stone Ridge, N.Y.). Rats weighing 215-245 g (8 weeks old) were used. Briefly, rats were housed two per cage with a rat tunnel enrichment device (Bio-Serve, Frenchtown, N.J.). Rats were fed a Purina Rodent Diet No. 5002 (Ralston Purina Co., St. Louis, Mo.), supplied ad libitum. Animals received reverse osmosis-treated tap water (City of Durham, N.C.) ad libitum, which was changed at least once weekly. Controls in the animal rooms were set to maintain temperatures between 20-25° C. with a relative humidity of 30-70% and a 12-hour light/12-hour dark cycle, lights on at 6:00 AM. Clinically healthy animals were assigned to dose groups using a procedure that stratifies animals across groups by body weight such that mean body weight of each group was not statistically different from any other group using analysis of variance (Statistical Analysis System version 9.2, SAS Institute, Cary, N.C.). Animals were dosed by oral gavage for five consecutive days (+10 minutes from the previous day's dose administration time). Volume was based upon daily body weight.
Animals were observed cageside one hour following daily dose administration, then 1-2 times per day during dosing regimens. Body weights were measured daily prior to dose administration, and prior to euthanasia. Twenty-four hours after the final dose administration, animals were anesthetized with isoflurane then euthanized by exsanguination followed by decapitation. Livers were harvested at necropsy and weighed to within 0.1 g. One half of the left lobe of the liver was fixed in 10% formalin. The remaining half of the left lobe of the liver was flash frozen in liquid nitrogen, then stored below −70° C. Liver specimens were frozen in less than three minutes from time of death.

Tgfb1 = experiment: qPCR of liver RNA: Tgfb1; type: in vivo, Male Sprague-Dawley rats
Description: Working on dry ice, a portion (−10 mg) of flash-frozen liver was cut from each sample and transferred to a clean, labeled tube. Total RNA was then isolated using Qiagen's miRNeasy 96 kit (Qiagen, Valencia, Calif.) following manufacturer's instructions with a final elution volume of −150 μL (2×75 μL). The quality and quantity of RNA samples were evaluated with a 2100 Bioanalyzer (Agilent Technologies, Santa Clara, Calif.), using the Agilent RNA 6000 Nano Reagents and a multiwell NanoDrop 8000 spectrophotometer (Thermo Fisher Scientific, Waltham, Mass.).
Using 1 μg RNA input, cDNA was generated using a QuantiTect Reverse Transcription kit (Qiagen, Valencia, Calif.) following manufacturer's instructions. Applied Biosystems SYBR Green Master Mix was used in a 20 μL qPCR reaction with 2 μL of cDNA template and a 2.tM final concentration of each primer. A total of five genes were targeted (Gapdh, Actb, Timp1, Tgfbl, and Psma5), two of which served as the endogenous controls (Gapdh and Actb). An Applied Biosystems 7500 Real-Time PCR System (Applied Biosystems, Foster City, Calif.) was used for thermal cycling and fluorescence detection using the default settings for Quantitation-Comparative CT with SYBR® . . . Green Reagents which uses the following scheme: 95° C. for 10 minutes followed by 40 cycles of: 95° C. for 15 seconds, 60° C. for 1 minute, and a fluorescence signal read. Al! primers were obtained from Integrated DNA Technology's PrimeTime qPCR primer library (Integrated DNA Technologies, Coralville, Iowa).
Data was imported into GraphPad Prism (GraphPad Software, Inc.; LaJolla, Calif.) for analysis. A nonparametric Kruskal-Wallis analysis of variance by ranks with post hoc […] multiple comparison test was used to determine statistical difference among dose groups. A one sample t-test compared to a theoretical mean of 1.0 fold change was used to determine difference from control for each dose group. A p-value<0.05 was used as a cutoff for statistical significance.

[2] = liver, across dose groups, vs control

Nc1ccc(Cc2ccc(N)cc2)cc1 [4,4′-methylenedianiline]
Body weight gain over the five experimental dosing days ([1]; dose groups): decrease in body weight gain
Body weight change over the five-day exposure interval [1]: gained less weight over the five-day exposure interval than their low-dose counterparts
Tgfb1 gene expression by qPCR (Tgfb1; [2]): showed a dose-dependent increase; also recorded: dose-dependent increases in gene expression

Brc1ccccc1 [bromobenzene]
Body weight gain over the five experimental dosing days ([1]; dose groups): decrease in body weight gain
Body weight change over the five-day exposure interval [1]: resulted in body weight loss over the study interval
Tgfb1 gene expression by qPCR (Tgfb1; [2]): not significantly affected at any dose; also recorded: slight, statistically insignificant increase

ClC(Cl)(Cl)Cl [carbon tetrachloride]
Body weight change ([1]; all doses): Body weight gain was less than controls at all doses
Body weight gain over the five experimental dosing days ([1]; dose groups): decrease in body weight gain
Tgfb1 gene expression by qPCR (Tgfb1; [2]): insignificant
Tgfb1 gene expression by qPCR (Tgfb1; liver, across dose groups, vs control, listed as Carbon tetrachloride): not significantly upregulated at any dose

C[C@@H]1C[C@H]2[C@@H]3CCC4=CC(=O)C=C[C@]4(C)[C@@]3(F)[C@@H](O)C[C@]2(C)[C@@]1(O)C(=O)CO [dexamethasone]
Body weight change ([1]; rat, in vivo): Body weight loss occurred at all doses
Body weight gain over the five experimental dosing days ([1]; rat, in vivo): decrease in body weight gain
Tgfb1 gene expression by qPCR (Tgfb1; 44.8 mg/kg): the difference was not statistically significant
Tgfb1 gene expression by qPCR (Tgfb1; 1, 6.7, or 300 mg/kg): significantly downregulated
Tgfb1 gene expression by qPCR (Tgfb1; [2]): decreased gene expression

— patent publication US11371097B2, “Articles for diagnosis of liver fibrosis” (THE GOVERNMENT OF THE UNITED STATES, as represented by THE …, priority 2015, dated 2022)
